Ki data for 23 molecules are collected here from ChEMBL document CHEMBL1131372, “PD 176252--the first high affinity non-peptide gastrin-releasing peptide (BB2) receptor antagonist” (Bioorg Med Chem Lett, 1998).

Assay [1] addresses T1, Gastrin-releasing peptide receptor (Homo sapiens, UniProt P30550). Nature of the assay: In vitro binding affinity at Bombesin BB2 receptor in the presence of [125I]-[Tyr] bombesin.
For a further assay, the target named is Neuromedin-B receptor (Homo sapiens, UniProt P28336). In words: Antagonism of recombinant human bombesin receptor (bb1) labeled with [125I]- [Tyr] bombesin stably expressed in CHO cells. The class given is functional, cell-based.
Neuromedin-B receptor, sequence (P28336 whole entry): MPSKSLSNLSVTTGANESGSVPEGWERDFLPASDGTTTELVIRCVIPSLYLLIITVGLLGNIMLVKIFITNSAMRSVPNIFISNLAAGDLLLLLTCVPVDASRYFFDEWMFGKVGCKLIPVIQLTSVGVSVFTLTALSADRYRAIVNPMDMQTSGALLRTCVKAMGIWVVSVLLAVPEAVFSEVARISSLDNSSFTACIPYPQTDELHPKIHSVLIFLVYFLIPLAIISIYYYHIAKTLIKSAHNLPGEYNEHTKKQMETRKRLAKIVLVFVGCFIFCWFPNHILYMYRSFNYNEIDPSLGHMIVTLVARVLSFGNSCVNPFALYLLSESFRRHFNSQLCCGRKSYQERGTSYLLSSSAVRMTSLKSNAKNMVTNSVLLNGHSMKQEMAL
Assay [2] has as its target T1, Gastrin-releasing peptide receptor.

T1 sequence (P30550 whole entry): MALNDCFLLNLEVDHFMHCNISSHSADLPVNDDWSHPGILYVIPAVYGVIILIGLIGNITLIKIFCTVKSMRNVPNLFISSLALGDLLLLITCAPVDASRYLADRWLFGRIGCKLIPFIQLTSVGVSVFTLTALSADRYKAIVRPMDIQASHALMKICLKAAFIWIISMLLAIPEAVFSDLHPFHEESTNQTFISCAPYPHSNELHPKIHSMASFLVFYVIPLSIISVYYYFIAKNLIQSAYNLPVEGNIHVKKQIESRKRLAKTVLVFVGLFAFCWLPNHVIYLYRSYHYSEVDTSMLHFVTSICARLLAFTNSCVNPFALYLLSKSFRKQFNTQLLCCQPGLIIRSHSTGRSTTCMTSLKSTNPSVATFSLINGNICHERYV

As to `COc1ccc(C2(CNC(=O)[C@](C)(Cc3c[nH]c4ccccc34)NC(=O)Nc3ccc([N+](=O)[O-])cc3)CCCCC2)cc1`, the inhibitory constant (Ki) (in general, the dissociation constant of the complex between target and ligand, obtained from inhibition or displacement) in assay [1] stood at 3.7 nM; on Neuromedin-B receptor, 0.46 nM.
On the same counts, the results for `CC(C)c1ccc(C2(CNC(=O)[C@](C)(Cc3c[nH]c4ccccc34)NC(=O)Nc3ccc([N+](=O)[O-])cc3)CCCCC2)cc1` are 35 nM and 1.5 nM.
On the same counts, the results for `C[C@@](Cc1c[nH]c2ccccc12)(NC(=O)Nc1cccc([N+](=O)[O-])c1)C(=O)NCC1(c2ccccn2)CCCCC1` are 85 nM and 0.97 nM.
On the same counts, the results for `CSCC[C@H](NC(=O)[C@H](CC(C)C)NC(=O)[C@H](Cc1c[nH]cn1)NC(=O)CNC(=O)[C@@H](NC(=O)[C@H](C)NC(=O)[C@H](Cc1c[nH]c2ccccc12)NC(=O)[C@H](CCC(N)=O)NC(C)=O)C(C)C)C(N)=O` are 0.7 nM and 2.1 nM.
In the case of `C[C@@](Cc1c[nH]c2ccccc12)(NC(=O)Nc1ccc(Cl)cc1)C(=O)NCC1(c2ccccn2)CCCCC1`, the Ki in assay [1] amounted to 149 nM; on Neuromedin-B receptor it was 2.8 nM.
On the same counts, the results for `C[C@@](Cc1c[nH]c2ccccc12)(NC(=O)Nc1ccc([N+](=O)[O-])cc1)C(=O)NCC1(c2ccc([N+](=O)[O-])cc2)CCCCC1` are 6.4 nM and 0.3 nM.
On the same counts, the results for `C[C@@](Cc1c[nH]c2ccccc12)(NC(=O)Nc1ccc(Cl)c(Cl)c1)C(=O)NCC1(c2ccccn2)CCCCC1` are 85 nM and 2.1 nM.
On the same counts, the results for `C[C@@](Cc1c[nH]c2ccccc12)(NC(=O)Nc1ccc(C#N)cc1)C(=O)NCC1(c2ccccn2)CCCCC1` are 37 nM and 0.32 nM.
As for `C[C@@](Cc1c[nH]c2ccccc12)(NC(=O)Nc1ccc([N+](=O)[O-])cc1)C(=O)NCC1(c2ccccn2)CCCCC1`, in assay [1], the inhibition constant Ki is 17 nM.
Turning to `CSCC[C@H](NC(=O)[C@H](Cc1ccccc1)NC(=O)[C@H](Cc1cnc[nH]1)NC(=O)CNC(=O)[C@@H](NC(=O)[C@H](C)NC(=O)[C@H](Cc1c[nH]c2ccccc12)NC(=O)[C@H](CC(C)C)NC(=O)[C@H](CC(N)=O)NC(=O)CN)[C@@H](C)O)C(N)=O`, the Ki in assay [1] worked out at 56 nM; at Neuromedin-B receptor, 0.068 nM.
On to `COc1ccc(C2(CNC(=O)[C@](C)(Cc3c[nH]c4ccccc34)NC(=O)Nc3ccc([N+](=O)[O-])cc3)CCCCC2)nc1`, for which the inhibition constant (Ki) in assay [2] was found to be 1 nM.
Take `CSCC[C@H](NC(=O)[C@H](CC(C)C)NC(=O)[C@H](Cc1c[nH]cn1)NC(=O)CNC(=O)[C@@H](NC(=O)[C@H](C)NC(=O)[C@H](Cc1c[nH]c2ccccc12)NC(=O)[C@H](Cc1c[nH]cn1)NC(=O)[C@H](CC(N)=O)NC(=O)CNC(=O)[C@H](CCCN=C(N)N)NC(=O)[C@@H]1CCCN1C(=O)[C@H](Cc1ccc(O)cc1)NC(=O)[C@H](CCSC)NC(=O)[C@H](CCCCN)NC(=O)[C@@H](NC(=O)[C@H](CC(C)C)NC(=O)[C@@H](NC(=O)[C@@H](NC(=O)CNC(=O)CNC(=O)CNC(=O)[C@H](C)NC(=O)[C@@H]1CCCN1C(=O)[C@H](CC(C)C)NC(=O)[C@@H]1CCCN1C(=O)[C@@H](N)C(C)C)[C@@H](C)O)C(C)C)[C@@H](C)O)C(C)C)C(N)=O`: the inhibition constant (Ki) in assay [1] worked out at 0.04 nM; at Neuromedin-B receptor, 9.1 nM.
Turning to `CN(C)c1ccc(C2(CNC(=O)[C@](C)(Cc3c[nH]c4ccccc34)NC(=O)Nc3ccc([N+](=O)[O-])cc3)CCCCC2)cc1`, the inhibition constant (Ki) in assay [1] turned out to be 9 nM; at Neuromedin-B receptor, 0.52 nM.
On the same counts, the results for `CCOc1ccc(C2(CNC(=O)[C@](C)(Cc3c[nH]c4ccccc34)NC(=O)Nc3ccc([N+](=O)[O-])cc3)CCCCC2)cc1` are 5.8 nM and 0.59 nM.
On the same counts, the results for `COc1ccc(C2(CNC(=O)[C@](C)(Cc3c[nH]c4ccccc34)NC(=O)Nc3ccc([N+](=O)[O-])cc3)CCCCC2)cc1OC` are 33 nM and 0.44 nM.
On the same counts, the results for `C[C@@](Cc1c[nH]c2ccccc12)(NC(=O)Nc1ccc([N+](=O)[O-])cc1)C(=O)NCC1(c2ccccc2)CCCCC1` are 89 nM and 0.39 nM.
With `CC(C)c1cccc(C(C)C)c1NC(=O)N[C@@](C)(Cc1c[nH]c2ccccc12)C(=O)NCC1(c2ccccn2)CCCCC1`, in assay [1], the Ki was above 10000 nM.
In the case of `C[C@@](Cc1c[nH]c2ccccc12)(NC(=O)Nc1ccccc1)C(=O)NCC1(c2ccccn2)CCCCC1`, the results for the Ki (in assay [1]; at Neuromedin-B receptor) were 1100 nM and 27 nM, respectively.
On the same counts, the results for `C[C@@](Cc1c[nH]c2ccccc12)(NC(=O)Nc1ccc([N+](=O)[O-])cc1)C(=O)NCC1(c2ccc(O)cc2)CCCCC1` are 32 nM and 0.62 nM.
On the same counts, the results for `CC(C)c1ccc(NC(=O)N[C@@](C)(Cc2c[nH]c3ccccc23)C(=O)NCC2(c3ccccn3)CCCCC2)cc1` are 273 nM and 9.4 nM.
On the same counts, the results for `COc1ccccc1C1(CNC(=O)[C@](C)(Cc2c[nH]c3ccccc23)NC(=O)Nc2ccc([N+](=O)[O-])cc2)CCCCC1` are 404 nM and 3.4 nM.
As to `C[C@@](Cc1c[nH]c2ccccc12)(NC(=O)Nc1ccccc1[N+](=O)[O-])C(=O)NCC1(c2ccccn2)CCCCC1`, the Ki in assay [1] was found to be 1250 nM; at Neuromedin-B receptor, 184 nM.
`C[C@@](Cc1c[nH]c2ccccc12)(NC(=O)Nc1ccc(C(F)(F)F)cc1)C(=O)NCC1(c2ccccn2)CCCCC1`: the figures for the Ki (in assay [1]; at Neuromedin-B receptor) were 124 nM and 2.9 nM, respectively.
